Experimental data: patent US11672799B2, “1,4-disubstituted pyridazine quinolne analogs there of and methods for treating SMN-deficiency-related conditions” (Novartis AG, priority 2013, dated 2023)
Like-named read-outs stand apart in the source and are kept apart here.

Test system: SMN protein
Test: cellular SMN ELISA (SMN protein elevation) in myoblast cell line from SMNdelta7 mouse model
Assay type: cell-based
Description: A cellular SMN ELISA was used to measure the effects of low molecular weight compounds on SMN protein elevation. Cells from a myoblast cell line derived from the SMNdelta7 mouse model (kind gift from Steve Burden, NYU) were seeded into a 384-well plate at a density of 3000 cells/well and treated with compounds for 24 hours. ELISA capture plates were prepared by coating 384-well plates (Immulon 4HBX) with 0.5 ug/mL of anti-SMN mAb (BD Science, Catalog number 610647) at 4° C. overnight. The plates were washed 5 times with 110 uL of PBS-Tween (0.05% Tween-20, PBST), blocked with 100 uL of 1% BSA in PBST for 2 hours and washed (5 times) with 100 uL of PBST. After 24 hours of compound treatment cells were lysed in a modified RIPA-buffer, on ice for 1 hour. 20 uL of lysate and 20 uL of 1% BSA were then added to the ELISA capture plates and incubated at 4° C. overnight. Plates were washed (5 times) with PBST and then incubated with 1:100 dilution of primary rabbit anti-SMN polyclonal antibody (Santa cruz, Catalog number SC-15320) at room temperature for 1 hour and subsequently washed (5 times) with 110 uL of PBST. This was followed by addition of 1:100 Goat anti-Rabbit IgG-HRP linked (Cell Signaling, Catalog number 7074) secondary antibody for 1 hour. Plates were then washed with PBST and incubated with 40 uL TMB substrate (Cell Signaling, Catalog number 7004 L) at room temperature for 1-10 minutes with shaking. The reaction was stopped by addition of 40 uL of stop solution (Cell signaling, Catalog number 7002 L) and absorption was measured at 450 nm. Data was reported as fold activation over DMSO control, and EC50.
ELISA assay condition 1: compound concentration range 20 nM-10 uM; ELISA assay condition 2: compound concentration 100 pM-10 uM. Data generated in Biological Example 1 using ELISA conditions 1 or 2.

[1] = Biological Example 1, SMN ELISA, SMNdelta7 mouse myoblasts, 24 hours compound treatment
[2] = Biological Example 1, SMN ELISA, SMNdelta7 mouse myoblasts, 24 hours compound treatment, read-out: SMN Activity (EC50)
[3] = comparison of unsubstituted, ortho-hydroxy and ortho-alkoxy pyridazines, as in Biological Example 1
[4] = comparison of unsubstituted, ortho-hydroxy and ortho-alkoxy pyridazines, as in Biological Example 1, read-out: SMN ELISA EC50

Compound	SMN Activity (fold activation over DMSO control) [1] [fold]	EC50 [2] [nM]	Fold activation [3]	EC50 [4] [nM]
Cc1nccc2cc(O)c(-c3ccc(N(C)C4CC(C)(C)NC(C)(C)C4)nn3)cc12 [Example 29-2, 1-methyl-7-(6-(methyl(2,2,6,6-tetramethylpiperidin-4-yl)amino)pyridazin-3-yl)isoquinolin-6-ol]	2.53	9	–	–
CN(c1ccc(-c2cc3nccc(Cl)c3cc2O)nn1)C1CC(C)(C)NC(C)(C)C1 [Preparation 13, 4-chloro-7-(6-(methyl(2,2,6,6-tetramethylpiperidin-4-yl)amino)pyridazin-3-yl)quinolin-6-ol]	2.6	7	–	–
Cc1cc(N(C)C)c2cc(-c3ccc(N(C)C4CC(C)(C)NC(C)(C)C4)nn3)c(O)cc2n1 [Example 10-4, 4-(Dimethylamino)-2-methyl-6-(6-(methyl(2,2,6,6-tetramethylpiperidin-4-yl)amino)pyridazin-3-yl)quinolin-7-ol]	2.7	12	–	–
CN(c1ccc(-c2ccc3ccncc3c2)nn1)C1CC(C)(C)NC(C)(C)C1 [drawing 137 R = H]	–	–	2.7	250
CN(c1ccc(-c2cc3c(=O)nc[nH]c3cc2O)nn1)C1CC(C)(C)NC(C)(C)C1 [Example 22-1, 7-hydroxy-6-(6-(methyl(2,2,6,6-tetramethylpiperidin-4-yl)amino)pyridazin-3-yl)quinazolin-4(1H)-one]	2.58	110	–	–
CN(c1ccc(-c2cc3cc(O)cnc3cc2O)nn1)C1CC(C)(C)NC(C)(C)C1 [Example 7-6, 6-(6-(methyl(2,2,6,6-tetramethylpiperidin-4-yl)amino)pyridazin-3-yl)quinoline-3,7-diol]	2.9	300	–	–
CN(c1ccc(-c2cc3c(C4CC4)nccc3cc2O)nn1)C1CC(C)(C)NC(C)(C)C1 [Example 3-5, 1-cyclopropyl-7-(6-(methyl(2,2,6,6-tetramethylpiperidin-4-yl)amino)pyridazin-3-yl)isoquinolin-6-ol]	2.54	14	–	–
CN(c1ccc(-c2cc3ccnc(C#N)c3cc2O)nn1)C1CC(C)(C)NC(C)(C)C1 [Example 26-1, 7-hydroxy-6-(6-(methyl(2,2,6,6-tetramethylpiperidin-4-yl)amino)pyridazin-3-yl)isoquinoline-1-carbonitrile]	2.58	16	–	–
CN(c1ccc(-c2c(O)ccc3cccnc23)nn1)C1CC(C)(C)NC(C)(C)C1 [Example 5-1, 8-(6-(methyl(2,2,6,6-tetramethylpiperidin-4-yl)amino)pyridazin-3-yl)quinolin-7-ol]	2.6	300	–	–
CN(c1ccc(-c2ccc3ncccc3c2)nn1)C1CC(C)(C)NC(C)(C)C1 [drawing 135 R = H]	–	–	2.2	660
CN(c1ccc(-c2cc3cnc(-c4ccccc4)cc3cc2O)nn1)C1CC(C)(C)NC(C)(C)C1 [Example 36-1, 7-(6-(methyl(2,2,6,6-tetramethyl-piperidin-4-yl)amino)-pyridazin-3-yl)-3-phenylisoquinolin-6-ol]	2.32	282	–	–
CN1C[C@@H]2CN(c3ccc(-c4cc5cnccc5cc4O)nn3)C[C@@H]2C1 [Example 3-4, 7-(6-((3aR,6aS)-5-methylhexahydropyrrolo[3,4-c]pyrrol-2(1H)-yl)pyridazin-3-yl)isoquinolin-6-ol]	2.3	60	–	–
CN(c1ccc(-c2cc3ccc(C#N)nc3cc2O)nn1)C1CC(C)(C)NC(C)(C)C1 [Example 26-2, 7-hydroxy-6-(6-(methyl(2,2,6,6-tetramethylpiperidin-4-yl)amino)pyridazin-3-yl)quinoline-2-carbonitrile]	3.14	7	–	–
